Patent publication US10738101B2, “Method for selecting odor-controlling substance” (Kao Corporation, priority 2015, dated 2020)

Assays:
OR9Q2 = target: T1, OR9Q2 (Homo sapiens, UniProt Q8NGE9); test: Luciferase reporter gene assay, OR9Q2-expressing HEK293 cells; type: cell-based; details: FIG. 2, 5B, 5C
T1 construct: expressed in transfected cells; host or cells: HEK293
T1 sequence (Q8NGE9 1-314): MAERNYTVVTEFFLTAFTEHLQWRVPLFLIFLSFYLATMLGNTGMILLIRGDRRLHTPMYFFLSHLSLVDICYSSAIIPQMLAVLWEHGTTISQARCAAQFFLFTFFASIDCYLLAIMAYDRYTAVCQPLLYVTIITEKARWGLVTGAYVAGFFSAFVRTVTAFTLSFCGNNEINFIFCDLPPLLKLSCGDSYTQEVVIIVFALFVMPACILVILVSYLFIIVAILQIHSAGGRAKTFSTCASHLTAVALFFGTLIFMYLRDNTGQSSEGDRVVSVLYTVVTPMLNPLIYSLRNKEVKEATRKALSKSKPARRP
From the text: On the basis of sequence information registered in GenBank, genes respectively encoding 370 human olfactory receptors shown in Tables 1-1 and 1-2 and genes respectively encoding the human olfactory receptors OR5AN1, OR10G4 and OR9Q2 (respectively set forth in SEQ ID NOS: 1, 3 and 5) were cloned. Each of the genes was cloned by the PCR using human genomic DNA person (G1521: Promega) as a template. Each gene amplified by the PCR was incorporated into a pENTR vector (Invitrogen) in accordance with the instruction, and was recombined to NotI and AscI sites produced downstream from a Flag-Rho tag sequence on a pME18S vector by using NotI and AscI sites present on the pENTR vector.
In 1) of Example 1, HEK293 cells on which the 370 human olfactory receptors were respectively expressed were produced. A reaction solution having a composition shown in Table 2 was prepared and allowed to stand still in a clean bench for 15 minutes, and the resultant was added by 4.4 μL per well in a 384-well plate (BioCoat). Subsequently, the HEK293 cells (20×10^4 cells/cm^2) were seeded by 40 μL per well, and the resultant was cultured for 24 hours in an incubator kept at 37° C. and 5% CO2.
In 2) of Example 1 and Examples 2 and 3, HEK293 cells in which the human olfactory receptor OR5AN1, OR10G4, OR9Q2 or OR1A1 was expressed were produced. A reaction solution having a composition shown in Table 3 was prepared and allowed to stand still in a clean bench for 15 minutes, and the resultant was added by 10 μL per well in a 96-well plate (BioCoat). Subsequently, the HEK293 cells (3×10^5 cells/cm^2) were seeded by 90 μL per well, and the resultant was cultured for 24 hours in an incubator kept at 37° C. and 5% CO2. Cells obtained under conditions for not expressing the olfactory receptor (Mock) were also prepared to be used as a control, and were used similarly in an experiment.
The olfactory receptor expressed on the HEK293 cells increases the intracellular cAMP amount by activating adenylate cyclase in conjugation with intracellular Gαs. In the measurement of odor response in this study, luciferase reporter gene assay for monitoring the increase of the intracellular cAMP amount as a luminescence value derived from a firefly luciferase gene (fluc2P-CRE-hygro) was employed. Besides, a fused Renilla luciferase (hRluc-CMV) gene was simultaneously transferred downstream of the CMV promoter, so as to be used as an internal standard for correcting the gene transfer efficiency or an error in the number of cells. For measuring the activity of the luciferase, Dual-Glo(™) Luciferase Assay System (Promega) was used, and the measurement was performed in accordance with the operation instruction of the product. Under each of various stimulation conditions, a value fLuc/hRluc obtained by dividing a firefly luciferase-derived luminescence value by a Renilla luciferase-derived luminescence value was calculated. A value obtained by dividing a value fLuc/hRluc induced by stimulation with an odorous substance by a value fLuc/hRluc of a cell not stimulated with the odorous substance was obtained as fold increase, which was used as an index of the response intensity. A dose-response curve was analyzed using Graph Pad Prism.
The medium was removed from each of the cultures of the olfactory receptor expressing cells produced according to Reference Example 1, and an odorous substance (muscone, guaiacol or p-cresol) was added thereto. A DMEM medium (Nacalai) containing muscone or guaiacol was added to a 384-well plate containing the culture by 30 μL per well (to a final concentration of muscone of 100 μM and of guaiacol of 1 mM). Alternatively, a CD293 medium (Invitrogen) containing p-cresol was added to a 96-well plate containing the culture by 75 μL per well (to a final concentration of 1 mM). […]

ethyl vanillin odor = test: Sensory test of cross-adaptation, target odor ethyl vanillin; type: in vivo, human; details: panelists
odor of guaiacol = test: Sensory test of cross-adaptation, target odor guaiacol; type: in vivo, human; details: panelists, test sample smelled before target sample, FIG. 6B
Experimental: (§1) The cross-adaptation effect induced by the odorous substance evaluated in Example 2 was estimated by a sensory test. A glass bottle (No. 11, manufactured by Hakuyo Glass Co., Ltd., capacity: 110 mL) was charged with a target odorous substance to be used as a target sample. As the target odorous substance, muscone, guaiacol or p-cresol was used. As the muscone, a cotton ball soaked with 1 mg of muscone was used. As the guaiacol and p-cresol, 1 mL of a mineral oil (Sigma-Aldrich) solution in a concentration of 10 ppm was used. In a similar manner, a glass bottle was charged with a test substance to be used as a test sample. As the test sample, 5 mg of an ethyl vanillin powder, or 1 mL of a mineral oil (Sigma-Aldrich) solution of p-cresyl acetate, p-cresyl isobutyrate or p-methyl quinoline prepared to a concentration of 1,000 ppm was used.
The sensory test was performed by a single blind method by five to eight panelists. The target sample was first presented to each panelist, who was caused to replay on the odor intensity. Next, the test sample was presented for 2 minutes or until the odor could not be perceived. Thereafter, the target sample was presented again, and the panelist was caused to replay on the odor intensity. This series of operations was defined as one set, and the sensory test was carried out with four sets per day per panelist set as the upper limit. […]

odor of p-cresol = test: Sensory test of cross-adaptation, target odor p-cresol; type: in vivo, human; details: panelists, test sample smelled before target sample, FIG. 6C
Experimental: as §1
The sensory test was performed by a single blind method by five to eight panelists. The target sample was first presented to each panelist, who was caused to replay on the odor intensity. Next, the test sample was presented for 2 minutes or until the odor could not be perceived. Thereafter, the target sample was presented again, and the panelist was caused to replay on the odor intensity. This series of operations was defined as one set, and the sensory test was carried out with four sets per day per panelist set as the upper limit. A recess of at least 10 minutes or more was provided between the sets.
The panelist was caused to plot the estimated intensity of the target odor on a straight line of 9.5 cm with both ends respectively provided with criteria “No odor” and “Strong odor”. A distance (A) between the position of the target odor intensity plotted in the initial estimate and the end of “No odor”, and a distance (B) between the position of the target odor intensity plotted in the second estimate and the end of “No odor” were obtained, so as to calculate percentage odor intensity of the initial estimate [B/A*100−100]. As this value is smaller, the intensity of the target odor perceived in the second estimate is suppressed stronger as compared with that in the initial estimate, namely, stronger cross-adaptation is induced. If this value is −100%, it means that the target odor was not perceived at all in the second estimate.

[1] = system: odor of p-methyl quinoline; test: Sensory test of cross-adaptation, target odor p-methyl quinoline; type: in vivo, human; details: panelists

For `C[C@@H]1CCCCCCCCCCCCC(=O)C1` [muscone, (R)-3-methyl-1-cyclopentadecanone], the “responsiveness of OR9Q2 (fold increase)” value (OR9Q2) was “do not have responsiveness”, the “cross-adaptation of ethyl vanillin odor induced by test substance” value (ethyl vanillin odor) was “not induced” and the “cross-adaptation of guaiacol odor induced by test substance” value (odor of guaiacol) was “not induced”. For the same compound, the “cross-adaptation of p-cresol odor induced by test substance” value (odor of p-cresol) was “did not induce the cross-adaptation” and the “cross-adaptation of p-methyl quinoline odor induced by test substance” value [1] was “did not induce the cross-adaptation”.
